The text below walks through data of patent US9120805B2, “Substituted pyrrolo[1,2-A]pyrazin-1-ones and pyrazolo[1,5-A]pyrazin-4-ones as inhibitors of tankyrase and poly(ADP-ribose)polymerase activity” (Merck Patent GmbH, priority 2012, dated 2015).

Format in all cases: biochemical
Assay [1] addresses T1, GST-tagged Tankyrase-2 (873-1166 aa) (Homo sapiens, UniProt Q9H2K2).
T1 construct: GST-tagged Tankyrase-2 (873-1166 aa)
Kind of assay: Tankyrase 2 autoparsylation assay (HTRF enzyme assay). The essentials:
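~250 nM GST-tagged enzyme with 5 μM biotin-NAD in HEPES/Mg/DTT buffer pH 7.7, 10 compound concentrations, 90 min at 30 °C; EDTA stop. Eu-anti-GST/streptavidin-Xlent HTRF read (665/615 ratio) after 1 h RT. IC50 relative to inhibitor-free reaction and 5 μM XAV-939 as zero.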
In general terms: TR-FRET usually uses a lanthanide donor and a delayed reading to cut background.

In assay [2] the target is T2, GST-tagged Tnks-1 (1023-1327 aa) (Homo sapiens, UniProt O95271).
T2 construct: GST-tagged Tnks-1 (1023-1327 aa, prepared in-house); made in house
The assay is described as follows: TNKS1 activity ELISA (autoparsylation assay). The method, then:
(§1) Description of the TNKS1 and TNKS2 ELISA Assay
(§2) Biochemical Activity Testing of TNKS 1 and 2: Activity ELISA (Autoparsylation Assay)
(§3) For analysis of autoparsylation activity of TNKS 1 and 2 an activity ELISA is performed: In the first step GST tagged TNKS is captured on a Glutathione coated plate. Then the activity assay with biotinylated NAD is performed in the absence/presence of the compounds. During the enzymatic reaction GST tagged TNKS transfers biotinylated ADP-ribose to itself from biotinylated NAD as co-substrate. For the detection streptavidin-HRP conjugate is added that binds to the biotinylated TNKS and is thereby captured to the plates. The amount of biotinylated resp. autoparsylated TNKS is detected with a luminescence substrate for HRP. The level of the luminescence signal correlates directly with the amount of autoparsylated TNKS and therefore with activity of TNKS.
(§4) The activity ELISA is performed in 384 well Glutathione coated microtiter plates (Express capture Glutathione coated plate, Biocat, Heidelberg, Germany). The plates are pre-equilibrated with PBS. Then the plates are incubated with 50 μl 20 ng/well GST-tagged Tnks-1 (1023-1327 aa, prepared in-house), respectively GST-tagged Tnks-2 (873-1166 aa, prepared in-house) in assay buffer (50 mM HEPES, 4 mM Mg-chloride, 0.05% Pluronic F-68, 2 mM DTT, pH 7.7) overnight at 4° C. The plates are washed 3 times with PBS-Tween-20. The wells are blocked by incubation at room temperature for 20 minutes with 50 μl blocking buffer (PBS, 0.05% Tween-20, 0.5% BSA). Afterwards the plates are washed 3 times with PBS-Tween-20. The enzymatic reaction is performed in 50 μl reaction solution (50 mM HEPES, 4 mM Mg-chloride, 0.05% Pluronic F-68, 1.4 mM DTT, 0.5% DMSO, pH 7.7) with 10 μM bio-NAD (Biolog, Life science Inst., Bremen, Germany) as co-substrate in the absence or presence of the test compound (10 dilution concentrations) for 1 hour at 30° C. The reaction is stopped by 3 times washing with PBS-Tween-20. For the detection 50 μl of 20 ng/μl Streptavidin, HRP conjugate (MoBiTec, Göttingen, Germany) in PBS/0.05% Tween-20/0.01% BSA are added and the plates are incubated for 30 minutes at room temperature. After three times washing with PBS-Tween-20 50 μl of SuperSignal ELISA Femto Maximum sensitivity substrate solution (ThermoFisherScientific (Pierce), Bonn, Germany) are added. Following a 1 minute incubation at room temperature luminescence signals are measured with an Envision multimode reader (Perkin Elmer LAS Germany GmbH) at 700 nm. The full value used is the inhibitor-free reaction. The pharmacological zero value used is XAV-939 (Tocris) in a final concentration of 5 μM. The inhibitory values (1050) are determined using either the program Symyx Assay Explorer® or Condosseo® from GeneData.
On the technique in general: An ELISA detects its analyte on a solid surface through an enzyme-linked reagent.

Assay [3] addresses T3, GST-tagged Tnks-2 (873-1166 aa) (Homo sapiens, UniProt Q9H2K2).
T3 construct: GST-tagged Tnks-2 (873-1166 aa, prepared in-house); made in house
The assay is described as follows: TNKS2 activity ELISA (autoparsylation assay). The protocol: as §1, §2, §3, §4

T1 sequence (Q9H2K2 873-1166): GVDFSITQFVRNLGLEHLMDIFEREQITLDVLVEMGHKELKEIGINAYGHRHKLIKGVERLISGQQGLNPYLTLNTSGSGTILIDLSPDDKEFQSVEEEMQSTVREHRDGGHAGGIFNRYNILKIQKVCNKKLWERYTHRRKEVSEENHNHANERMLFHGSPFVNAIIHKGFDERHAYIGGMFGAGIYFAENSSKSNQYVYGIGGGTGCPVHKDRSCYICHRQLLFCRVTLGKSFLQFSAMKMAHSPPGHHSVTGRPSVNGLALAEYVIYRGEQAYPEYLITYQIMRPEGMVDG
T3 sequence (Q9H2K2 873-1166): as above
T2 sequence (O95271 1023-1327): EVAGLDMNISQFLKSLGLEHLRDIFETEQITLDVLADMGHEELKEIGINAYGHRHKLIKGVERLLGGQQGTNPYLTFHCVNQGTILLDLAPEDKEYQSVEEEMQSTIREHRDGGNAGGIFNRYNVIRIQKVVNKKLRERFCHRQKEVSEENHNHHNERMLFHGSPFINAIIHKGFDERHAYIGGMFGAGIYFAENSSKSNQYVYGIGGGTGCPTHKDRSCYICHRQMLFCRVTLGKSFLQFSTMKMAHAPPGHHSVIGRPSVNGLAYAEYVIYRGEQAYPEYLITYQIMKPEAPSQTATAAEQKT

For the molecule `CC(C)(N)c1ccc(-c2cn3cc(F)cc3c(=O)[nH]2)cc1` [Compound A72, 3-[4-(1-amino-1-methyl-ethyl)-phenyl]-7-fluoro-2H-pyrrolo[1,2-a]pyrazin-1-one], the half-maximal inhibitory concentration (IC50) in assay [1], in assay [2] and in assay [3] was below 300 nM throughout.

As to `O=c1[nH]c(-c2ccc(C3CCNCC3)cc2)cn2cccc12` [Compound A75, 3-(4-piperidin-4-yl-phenyl)-2H-pyrrolo[1,2-a]pyrazin-1-one], the IC50 in assay [1], in assay [2] and in assay [3] was below 300 nM throughout.

As to `CC1(c2ccc(-c3cn4cc(F)cc4c(=O)[nH]3)cc2)CCCO1` (stereo not drawn) [Compound A73, 7-fluoro-3-[4-(2-methyl-tetrahydro-furan-2-yl)-phenyl]-2H-pyrrolo[1,2-a]pyrazin-1-one], the IC50 in assay [1], in assay [2] and in assay [3] was below 300 nM throughout.

Consider `CC(C)(OCCO)c1ccc(-c2cn3cc(F)cc3c(=O)[nH]2)cc1` [Compound A70, 7-fluoro-3-{4-[1-(2-hydroxy-ethoxy)-1-methyl-ethyl]-phenyl}-2H-pyrrolo[1,2-a]pyrazin-1-one], for which the IC50 in assay [1], in assay [2] and in assay [3] was below 300 nM each time.

For `O=c1[nH]c(-c2ccc(C3(O)CCC3)cc2)cn2cccc12` [Compound A111], the IC50 in assay [1], in assay [2] and in assay [3] was below 300 nM each time.

Consider `CC(C)(F)c1ccc(-c2cn3cc(F)cc3c(=O)[nH]2)cc1` [Compound A63, 7-fluoro-3-[4-(1-fluoro-1-methyl-ethyl)-phenyl]-2H-pyrrolo[1,2-a]pyrazin-1-one], for which the half-inhibitory concentration (IC50) (in general, the concentration at which inhibition is half-maximal) was 300 to 3000 nM in assay [1], below 300 nM in assay [2] and below 300 nM in assay [3].

Take `COCCOC(C)(C)c1ccc(-c2cn3cc(F)cc3c(=O)[nH]2)cc1` [Compound A71, 7-fluoro-3-{4-[1-(2-methoxy-ethoxy)-1-methyl-ethyl]-phenyl}-2H-pyrrolo[1,2-a]pyrazin-1-one]: the half-inhibitory concentration (IC50) in assay [1] was 300 to 3000 nM; in assay [2], below 300 nM; in assay [3] it was below 300 nM.

In the case of `Cc1cc2c(=O)[nH]c(-c3ccc(C(C)(C)O)cc3)cn2n1` [Compound A46, 6-[4-(1-hydroxy-1-methyl-ethyl)phenyl]-2-methyl-5H-pyrazolo[1,5-a]pyrazin-4-one], the values for the IC50 in assay [1], in assay [2] and in assay [3] were 300 to 3000 nM, below 300 nM and below 300 nM, respectively.

As for `O=c1[nH]c(-c2ccc(C3CCNC3)cc2)cn2cccc12` (stereo not drawn) [Compound A76, 3-(4-Pyrrolidin-3-yl-phenyl)-2H-pyrrolo[1,2-a]pyrazin-1-one], the IC50 in assay [1] was 300 to 3000 nM; in assay [2] it was below 300 nM; in assay [3], below 300 nM.

Consider `Cn1cc(-c2ccc(-c3cn4cccc4c(=O)[nH]3)cc2)cn1` [Compound A25, 3-[4-(1-methyl-1H-pyrazol-4-yl)-phenyl]-2H-pyrrolo[1,2-a]pyrazin-1-one], for which the half-maximal inhibitory concentration (IC50) in assay [1], in assay [2] and in assay [3] was below 300 nM throughout.

For the molecule `Cc1ccc(-c2cn3cccc3c(=O)[nH]2)cc1` [Compound A12, 3-p-tolyl-2H-pyrrolo[1,2-a]pyrazin-1-one], the half-maximal inhibitory concentration (IC50) in assay [1] is 300 to 3000 nM; in assay [2] it was below 300 nM; in assay [3] it was below 300 nM.

Turning to `Cc1cc2c(=O)[nH]c(-c3ccc(C(C)(C)O)cc3)cn2c1` [Compound A56, 3-[4-(1-hydroxy-1-methyl-ethyl)-phenyl]-7-methyl-2H-pyrrolo[1,2-a]pyrazin-1-one], the IC50 in assay [1] was 300 to 3000 nM; in assay [2], below 300 nM; in assay [3] it was below 300 nM.

For `CC(C)(O)c1ccc(-c2cn3cccc3c(=O)[nH]2)cc1` [Compound A29, 3-[4-(1-hydroxy-1-methyl-ethyl)-phenyl]-2H-pyrrolo[1,2-a]pyrazin-1-one], the IC50 in assay [1], in assay [2] and in assay [3] was below 300 nM each time.

On to `CC(C)(C)c1ccc(-c2cn3cccc3c(=O)[nH]2)cc1` [Compound A11, 3-(4-tert-butyl-phenyl)-2H-pyrrolo[1,2-a]pyrazin-1-one], for which the concentration for half-maximal inhibition (IC50) in assay [1], in assay [2] and in assay [3] was below 300 nM in each case.

Consider `CN1CCC(c2ccc(-c3cn4cccc4c(=O)[nH]3)cc2)CC1` [Compound A79, 3-[4-(1-methyl-piperidin-4-yl)-phenyl]-2H-pyrrolo[1,2-a]pyrazin-1-one], for which the concentration for half-maximal inhibition (IC50) in assay [1], in assay [2] and in assay [3] was below 300 nM each time.

In the case of `CC(C)(C)c1ccc(-c2cn3cc(F)cc3c(=O)[nH]2)cc1` [Compound A35, 3-(4-tert-butyl-phenyl)-7-fluoro-2H-pyrrolo[1,2-a]pyrazin-1-one], the 50% inhibitory concentration (IC50) in assay [1], in assay [2] and in assay [3] was below 300 nM each time.

With `CN1CCC(c2ccc(-c3cn4cccc4c(=O)[nH]3)cc2)C1` (stereo not drawn) [Compound A80, 3-[4-(1-methyl-pyrrolidin-3-yl)-phenyl]-2H-pyrrolo[1,2-a]pyrazin-1-one], the IC50 in assay [1] was 300 to 3000 nM; in assay [2] it was below 300 nM; in assay [3], below 300 nM.

Take `CC(C)(O)c1ccc(-c2cn3cc(Cl)cc3c(=O)[nH]2)cc1` [Compound A60, 7-chloro-3-[4-(1-hydroxy-1-methyl-ethyl)-phenyl]-2H-pyrrolo[1,2-a]pyrazin-1-one]: the 50% inhibitory concentration (IC50) in assay [1], in assay [2] and in assay [3] was below 300 nM in each case.

Turning to `CCC(O)(CC)c1ccc(-c2cn3cc(F)cc3c(=O)[nH]2)cc1` [Compound A61, 3-[4-(1-ethyl-1-hydroxy-propyl)-phenyl]-7-fluoro-2H-pyrrolo[1,2-a]pyrazin-1-one], the half-inhibitory concentration (IC50) in assay [1], in assay [2] and in assay [3] was below 300 nM each time.

Regarding `CC(C)(O)c1ccc(-c2cn3cc(F)cc3c(=O)[nH]2)cc1` [Compound A59, 7-fluoro-3-[4-(1-hydroxy-1-methyl-ethyl)-phenyl]-2H-pyrrolo[1,2-a]pyrazin-1-one], the half-maximal inhibitory concentration (IC50) in assay [1], in assay [2] and in assay [3] was below 300 nM in each case.
